Test results: paper doi:10.1101/2023.12.04.569845, “Identification of 4-(6-((2-methoxyphenyl)amino)pyrazin-2-yl)benzoic acids as CSNK2A inhibitors with antiviral activity and improved selectivity over PIM3” (bioRxiv, 2023)
Read-outs that look alike come from different tables or passages of the source.

Key:
Experiment in all cases: biochemical
Parameters in all cases: Thermal shift (DSF, SYPRO Orange) Tm shift of recombinant kinase domains at 10 uM compound
CK1d = target: T1, CK1d (Homo sapiens, UniProt P48730)
T1 construct: gene CSNK1D
T1 sequence (P48730 whole entry): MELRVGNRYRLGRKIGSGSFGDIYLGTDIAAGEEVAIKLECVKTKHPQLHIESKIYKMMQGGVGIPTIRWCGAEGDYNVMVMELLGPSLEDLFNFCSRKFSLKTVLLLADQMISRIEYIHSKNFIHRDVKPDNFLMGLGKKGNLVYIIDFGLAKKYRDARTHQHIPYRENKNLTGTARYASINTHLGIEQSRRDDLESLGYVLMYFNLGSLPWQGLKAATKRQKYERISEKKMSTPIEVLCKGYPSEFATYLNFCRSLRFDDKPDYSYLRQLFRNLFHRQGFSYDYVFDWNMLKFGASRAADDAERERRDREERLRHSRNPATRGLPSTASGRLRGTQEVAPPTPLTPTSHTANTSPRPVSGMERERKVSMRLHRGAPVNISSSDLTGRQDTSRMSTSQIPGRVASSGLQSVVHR

DRAK1 = target: T2, DRAK1 (Homo sapiens, UniProt Q9UEE5)
T2 construct: gene STK17A
T2 sequence (Q9UEE5 1-414): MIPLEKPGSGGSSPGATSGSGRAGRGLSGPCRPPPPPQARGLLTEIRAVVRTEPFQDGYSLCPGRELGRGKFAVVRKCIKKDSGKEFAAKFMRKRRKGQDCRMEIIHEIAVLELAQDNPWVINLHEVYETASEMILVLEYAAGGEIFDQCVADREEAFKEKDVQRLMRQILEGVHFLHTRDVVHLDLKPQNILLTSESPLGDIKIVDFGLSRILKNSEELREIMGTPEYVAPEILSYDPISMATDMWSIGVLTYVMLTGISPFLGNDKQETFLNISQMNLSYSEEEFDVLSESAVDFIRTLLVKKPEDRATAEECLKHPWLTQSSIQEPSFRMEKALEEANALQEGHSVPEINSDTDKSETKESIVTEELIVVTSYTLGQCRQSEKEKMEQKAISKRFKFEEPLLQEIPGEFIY

DYRK1A = DYRK1A (Homo sapiens, UniProt Q13627)
Erk2 = target: T3, Erk2 (Homo sapiens, UniProt P28482)
T3 construct: gene MAPK1
T3 sequence (P28482 whole entry): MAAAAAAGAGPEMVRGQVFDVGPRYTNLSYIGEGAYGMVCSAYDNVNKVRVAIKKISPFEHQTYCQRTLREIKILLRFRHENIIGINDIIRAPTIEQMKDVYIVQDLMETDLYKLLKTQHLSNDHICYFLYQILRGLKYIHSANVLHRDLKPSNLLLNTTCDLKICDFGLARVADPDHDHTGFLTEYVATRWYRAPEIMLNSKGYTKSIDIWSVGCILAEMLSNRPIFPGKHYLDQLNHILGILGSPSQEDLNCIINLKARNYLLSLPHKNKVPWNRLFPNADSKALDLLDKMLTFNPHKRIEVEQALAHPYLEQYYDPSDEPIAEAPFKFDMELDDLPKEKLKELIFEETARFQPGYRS

MARK3 = MARK3 (Homo sapiens, UniProt P27448)
Chain of MARK3 (P27448 whole entry): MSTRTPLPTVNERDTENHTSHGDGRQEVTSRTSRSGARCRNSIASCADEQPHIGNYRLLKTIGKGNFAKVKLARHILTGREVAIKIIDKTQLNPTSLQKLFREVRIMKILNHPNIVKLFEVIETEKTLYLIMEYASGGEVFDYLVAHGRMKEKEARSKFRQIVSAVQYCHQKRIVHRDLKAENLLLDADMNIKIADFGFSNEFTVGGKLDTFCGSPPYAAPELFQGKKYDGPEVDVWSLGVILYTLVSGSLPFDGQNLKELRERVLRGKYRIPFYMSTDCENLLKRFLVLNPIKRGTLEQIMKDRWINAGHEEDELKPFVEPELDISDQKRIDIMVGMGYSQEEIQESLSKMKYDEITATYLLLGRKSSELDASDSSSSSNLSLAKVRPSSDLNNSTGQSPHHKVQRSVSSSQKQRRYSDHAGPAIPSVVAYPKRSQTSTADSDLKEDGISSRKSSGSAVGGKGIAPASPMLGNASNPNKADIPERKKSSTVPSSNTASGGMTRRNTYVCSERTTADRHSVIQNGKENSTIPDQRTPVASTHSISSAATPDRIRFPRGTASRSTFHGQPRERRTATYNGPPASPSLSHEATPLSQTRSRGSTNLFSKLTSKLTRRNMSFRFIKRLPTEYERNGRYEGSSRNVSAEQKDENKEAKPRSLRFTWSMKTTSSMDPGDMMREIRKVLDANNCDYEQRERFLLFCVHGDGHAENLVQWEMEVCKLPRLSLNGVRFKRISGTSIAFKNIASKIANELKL

MRCKa = target: T4, MRCKa (Homo sapiens, UniProt Q5VT25)
T4 construct: gene CDC42BPA
T4 sequence (Q5VT25 whole entry): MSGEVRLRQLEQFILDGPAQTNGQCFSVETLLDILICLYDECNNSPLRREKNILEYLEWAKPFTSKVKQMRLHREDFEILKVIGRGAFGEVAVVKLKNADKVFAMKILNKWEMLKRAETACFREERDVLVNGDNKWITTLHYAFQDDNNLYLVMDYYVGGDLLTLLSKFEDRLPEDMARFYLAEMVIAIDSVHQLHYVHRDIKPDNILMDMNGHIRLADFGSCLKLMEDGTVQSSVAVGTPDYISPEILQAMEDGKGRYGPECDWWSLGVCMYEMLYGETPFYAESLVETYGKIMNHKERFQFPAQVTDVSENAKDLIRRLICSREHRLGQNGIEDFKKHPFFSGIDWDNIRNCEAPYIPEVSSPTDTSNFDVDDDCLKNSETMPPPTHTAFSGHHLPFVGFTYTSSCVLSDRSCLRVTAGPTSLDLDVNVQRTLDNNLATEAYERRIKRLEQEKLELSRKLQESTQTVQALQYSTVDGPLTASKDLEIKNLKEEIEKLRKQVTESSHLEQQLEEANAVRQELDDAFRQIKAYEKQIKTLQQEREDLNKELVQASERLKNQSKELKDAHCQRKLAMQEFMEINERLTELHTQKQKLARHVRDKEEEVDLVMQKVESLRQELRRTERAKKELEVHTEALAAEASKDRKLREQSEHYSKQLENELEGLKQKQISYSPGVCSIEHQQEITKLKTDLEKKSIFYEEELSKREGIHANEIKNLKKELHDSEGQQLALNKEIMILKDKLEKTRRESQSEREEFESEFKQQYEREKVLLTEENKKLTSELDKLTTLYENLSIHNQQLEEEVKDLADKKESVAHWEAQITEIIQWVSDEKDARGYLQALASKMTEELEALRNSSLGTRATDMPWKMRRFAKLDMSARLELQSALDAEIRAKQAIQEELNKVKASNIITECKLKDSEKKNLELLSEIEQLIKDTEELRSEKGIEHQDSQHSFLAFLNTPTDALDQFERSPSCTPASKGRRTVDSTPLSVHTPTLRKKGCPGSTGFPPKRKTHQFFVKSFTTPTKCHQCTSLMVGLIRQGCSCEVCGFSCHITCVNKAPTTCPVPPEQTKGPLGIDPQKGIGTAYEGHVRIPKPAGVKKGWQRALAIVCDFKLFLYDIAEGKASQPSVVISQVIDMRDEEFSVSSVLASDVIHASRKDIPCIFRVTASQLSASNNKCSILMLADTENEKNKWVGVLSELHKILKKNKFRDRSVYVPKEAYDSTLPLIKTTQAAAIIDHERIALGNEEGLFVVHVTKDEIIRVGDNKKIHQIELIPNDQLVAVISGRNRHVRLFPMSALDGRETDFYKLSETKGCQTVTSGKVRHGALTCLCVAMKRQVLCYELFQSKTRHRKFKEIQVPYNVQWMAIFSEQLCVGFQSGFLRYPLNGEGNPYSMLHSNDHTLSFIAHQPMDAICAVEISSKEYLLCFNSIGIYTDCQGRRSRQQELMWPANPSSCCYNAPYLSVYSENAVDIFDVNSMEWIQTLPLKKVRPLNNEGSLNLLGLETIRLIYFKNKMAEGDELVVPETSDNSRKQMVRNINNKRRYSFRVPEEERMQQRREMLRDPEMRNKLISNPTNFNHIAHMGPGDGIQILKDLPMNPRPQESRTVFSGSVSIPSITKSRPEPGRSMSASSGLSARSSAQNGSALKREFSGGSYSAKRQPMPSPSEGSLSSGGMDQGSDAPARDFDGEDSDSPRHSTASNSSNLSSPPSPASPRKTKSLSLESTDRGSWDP

MYT1 = target: T5, MYT1 (Homo sapiens, UniProt Q99640)
T5 construct: gene PKMYT1
T5 sequence (Q99640 1-499): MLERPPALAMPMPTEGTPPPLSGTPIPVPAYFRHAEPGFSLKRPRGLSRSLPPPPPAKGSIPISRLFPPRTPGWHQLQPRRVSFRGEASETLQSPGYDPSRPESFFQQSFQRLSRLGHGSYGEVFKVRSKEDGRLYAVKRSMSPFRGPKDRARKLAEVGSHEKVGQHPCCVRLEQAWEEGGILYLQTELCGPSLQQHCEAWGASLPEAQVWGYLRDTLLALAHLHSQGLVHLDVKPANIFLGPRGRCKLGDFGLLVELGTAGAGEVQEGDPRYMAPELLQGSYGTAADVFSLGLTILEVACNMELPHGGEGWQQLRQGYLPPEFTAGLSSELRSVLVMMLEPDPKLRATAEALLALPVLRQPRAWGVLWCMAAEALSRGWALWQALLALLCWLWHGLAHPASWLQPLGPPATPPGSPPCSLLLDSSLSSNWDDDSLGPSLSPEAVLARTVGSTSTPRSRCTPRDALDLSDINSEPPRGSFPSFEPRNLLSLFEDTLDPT

NDR2 = target: T6, NDR2 (Homo sapiens, UniProt Q9Y2H1)
T6 construct: gene STK38L
T6 sequence (Q9Y2H1 whole entry): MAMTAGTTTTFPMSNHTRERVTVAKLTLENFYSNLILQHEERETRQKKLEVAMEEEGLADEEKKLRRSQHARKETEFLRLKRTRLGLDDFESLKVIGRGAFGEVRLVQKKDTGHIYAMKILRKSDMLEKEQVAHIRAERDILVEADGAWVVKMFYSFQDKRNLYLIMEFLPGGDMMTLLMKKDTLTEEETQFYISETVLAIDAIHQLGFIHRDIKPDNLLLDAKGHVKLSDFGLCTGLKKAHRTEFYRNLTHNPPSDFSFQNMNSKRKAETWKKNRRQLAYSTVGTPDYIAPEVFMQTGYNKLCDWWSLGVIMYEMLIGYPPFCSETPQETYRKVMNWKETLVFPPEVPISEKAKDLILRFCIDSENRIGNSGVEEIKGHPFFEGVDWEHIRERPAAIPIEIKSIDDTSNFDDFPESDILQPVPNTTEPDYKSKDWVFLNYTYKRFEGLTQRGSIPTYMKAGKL

NEK2 = target: T7, NEK2 (Homo sapiens, UniProt P51955)
T7 sequence (P51955 1-445): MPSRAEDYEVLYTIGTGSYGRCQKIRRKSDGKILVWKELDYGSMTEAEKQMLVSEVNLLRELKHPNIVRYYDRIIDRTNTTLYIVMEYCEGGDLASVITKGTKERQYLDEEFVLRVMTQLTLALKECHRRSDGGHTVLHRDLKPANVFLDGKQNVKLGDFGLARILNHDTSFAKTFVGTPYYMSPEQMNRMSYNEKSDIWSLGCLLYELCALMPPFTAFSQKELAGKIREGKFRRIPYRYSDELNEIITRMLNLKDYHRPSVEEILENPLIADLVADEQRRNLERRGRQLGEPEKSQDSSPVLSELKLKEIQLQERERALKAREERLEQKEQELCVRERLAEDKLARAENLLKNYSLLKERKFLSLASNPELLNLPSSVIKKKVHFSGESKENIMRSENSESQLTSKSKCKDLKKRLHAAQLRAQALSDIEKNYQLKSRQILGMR

ULK3 = target: T8, ULK3 (Homo sapiens, UniProt Q6PHR2)
T8 sequence (Q6PHR2 1-472): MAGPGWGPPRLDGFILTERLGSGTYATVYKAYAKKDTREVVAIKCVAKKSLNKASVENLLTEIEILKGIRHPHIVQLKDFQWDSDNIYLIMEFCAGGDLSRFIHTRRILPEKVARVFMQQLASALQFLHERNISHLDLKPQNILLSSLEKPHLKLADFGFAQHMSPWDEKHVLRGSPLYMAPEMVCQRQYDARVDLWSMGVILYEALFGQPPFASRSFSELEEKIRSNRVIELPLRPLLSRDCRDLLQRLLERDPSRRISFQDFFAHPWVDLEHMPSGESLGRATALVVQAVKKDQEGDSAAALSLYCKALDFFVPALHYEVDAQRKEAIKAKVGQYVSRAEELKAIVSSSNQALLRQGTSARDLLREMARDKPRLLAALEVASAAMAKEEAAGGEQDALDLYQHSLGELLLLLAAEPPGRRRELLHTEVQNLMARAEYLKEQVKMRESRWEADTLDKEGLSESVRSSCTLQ

p38a = target: T9, p38a (Homo sapiens, UniProt Q16539)
T9 construct: gene MAPK14
T9 sequence (Q16539 whole entry): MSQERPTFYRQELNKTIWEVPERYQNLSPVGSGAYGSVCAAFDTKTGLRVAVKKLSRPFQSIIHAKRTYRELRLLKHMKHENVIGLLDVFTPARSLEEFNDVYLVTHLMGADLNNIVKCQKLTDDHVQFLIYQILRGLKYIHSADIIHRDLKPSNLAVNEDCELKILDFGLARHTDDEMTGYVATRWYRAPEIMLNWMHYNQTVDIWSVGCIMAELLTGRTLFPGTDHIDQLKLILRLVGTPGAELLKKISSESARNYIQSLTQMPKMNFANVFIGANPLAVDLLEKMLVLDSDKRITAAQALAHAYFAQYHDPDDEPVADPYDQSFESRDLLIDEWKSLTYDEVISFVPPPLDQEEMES

SMILES: CC(C)Nc1ccc2cnn(-c3cncc(-c4ccc(C(=O)O)cc4)n3)c2c1 [compound 2, 2]
- ΔTm at 10 µM (CK1d; read-out: 2): 3 °C
- ΔTm at 10 µM (DRAK1; read-out: 2): 8 °C
- ΔTm at 10 µM (DYRK1A; read-out: 2): 7 °C
- ΔTm at 10 µM (Erk2; read-out: 2): 0 °C
- ΔTm at 10 µM (MARK3; read-out: 2): 0 °C
- ΔTm at 10 µM (MRCKa; read-out: 2): 0 °C
- ΔTm at 10 µM (MYT1; read-out: 2): 0 °C
- ΔTm at 10 µM (NDR2; read-out: 2): -2 °C
- ΔTm at 10 µM (NEK2; read-out: 2): -2 °C
- ΔTm at 10 µM (ULK3; read-out: 2): 7 °C
- ΔTm at 10 µM (p38a; read-out: 2): -1 °C

SMILES: COc1ccc(OC(C)C)cc1Nc1cncc(-c2ccc(C(=O)O)cc2)n1 [7c]
- ΔTm at 10 µM (CK1d; read-out: 7c): 2 °C
- ΔTm at 10 µM (DRAK1; read-out: 7c): 4 °C
- ΔTm at 10 µM (DYRK1A; read-out: 7c): 5 °C
- ΔTm at 10 µM (Erk2; read-out: 7c): 0 °C
- ΔTm at 10 µM (MARK3; read-out: 7c): -1 °C
- ΔTm at 10 µM (MRCKa; read-out: 7c): 0 °C
- ΔTm at 10 µM (MYT1; read-out: 7c): 0 °C
- ΔTm at 10 µM (NDR2; read-out: 7c): -1 °C
- ΔTm at 10 µM (NEK2; read-out: 7c): -1 °C
- ΔTm at 10 µM (ULK3; read-out: 7c): 3 °C
- ΔTm at 10 µM (p38a; read-out: 7c): -1 °C

SMILES: CC(C)Oc1ccc2ccn(-c3cncc(-c4ccc(C(=O)O)cc4)n3)c2c1 [6c]
- ΔTm at 10 µM (CK1d; read-out: 6c): 3 °C
- ΔTm at 10 µM (DRAK1; read-out: 6c): 6 °C
- ΔTm at 10 µM (DYRK1A; read-out: 6c): 6 °C
- ΔTm at 10 µM (Erk2; read-out: 6c): 0 °C
- ΔTm at 10 µM (MARK3; read-out: 6c): -1 °C
- ΔTm at 10 µM (MRCKa; read-out: 6c): -1 °C
- ΔTm at 10 µM (MYT1; read-out: 6c): 0 °C
- ΔTm at 10 µM (NDR2; read-out: 6c): -1 °C
- ΔTm at 10 µM (NEK2; read-out: 6c): -4 °C
- ΔTm at 10 µM (ULK3; read-out: 6c): 5 °C
- ΔTm at 10 µM (p38a; read-out: 6c): -3 °C
